Source: PubChem BioAssay AID2060904 (Molecular Pharmacology Branch, DTP, NCI, 2025)

Tested on: 349418-098-R-PDC complex spheroid viability
Assay: Anticancer human tumor 349418-098-R-PDC patient-derived lung adenocarcinoma cell line growth inhibition [RAS]
Details: for IC50: curve of first compound; for viability, T/C: stronger effect = lower value
Procedure, shortened: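 Agents were tested in combination matrices in half-log decrements from a top concentration at or near clinical Cmax (10 microM if undetermined). Targets were multi-cell spheroids of tumour lines plus HUVEC and MSC stromal cells.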

[1] = second compound 0.00316 µM, first compound 0.0316 µM
[2] = second compound 0.00316 µM, first compound 0.1 µM
[3] = second compound 0.00316 µM, first compound 0.316 µM
[4] = second compound 0.00316 µM, first compound 1 µM
[5] = second compound 0.01 µM, first compound 0.0316 µM
[6] = second compound 0.01 µM, first compound 0.1 µM
[7] = second compound 0.01 µM, first compound 0.316 µM
[8] = second compound 0.01 µM, first compound 1 µM
[9] = second compound 0.0316 µM, first compound 0.0316 µM
[10] = second compound 0.0316 µM, first compound 0.1 µM
[11] = second compound 0.0316 µM, first compound 0.316 µM
[12] = second compound 0.0316 µM, first compound 1 µM
[13] = second compound 0.1 µM, first compound 0.0316 µM
[14] = second compound 0.1 µM, first compound 0.1 µM
[15] = second compound 0.1 µM, first compound 0.316 µM
[16] = second compound 0.1 µM, first compound 1 µM
[17] = second compound 0.316 µM, first compound 0.0316 µM
[18] = second compound 0.316 µM, first compound 0.1 µM
[19] = second compound 0.316 µM, first compound 0.316 µM
[20] = second compound 0.316 µM, first compound 1 µM
[21] = second compound 1 µM, first compound 0.0316 µM
[22] = second compound 1 µM, first compound 0.1 µM
[23] = second compound 1 µM, first compound 0.316 µM
[24] = second compound 1 µM, first compound 1 µM
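Further: spheroids exposed to compound for seven days before viability readout.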

## C=CC(=O)Nc1cc(Nc2nccc(-c3cn(C)c4ccccc34)n2)c(OC)cc1N(C)CCN(C)C + C=CC(=O)N1CCN(c2nc(OCC3CCCN3C)nc3c(F)c(-c4nc(N)cc(C)c4C(F)(F)F)c(Cl)cc23)C(C)C1
Second compound 0.00316 µM
  IC50: > 1000 nM
Second compound 0.01 µM
  IC50: > 1000 nM
Second compound 0.0316 µM
  IC50: > 1000 nM
Second compound 0.1 µM
  IC50: > 1000 nM
Second compound 0.316 µM
  IC50: > 1000 nM
Second compound 1 µM
  IC50: > 1000 nM
Second compound 0.00316 µM, first compound 0.00316 µM
  viability, T/C: 80.7%
Second compound 0.00316 µM, first compound 0.01 µM
  viability, T/C: 119%
[1]
  viability, T/C: 91.5%
[2]
  viability, T/C: 69.9%
[3]
  viability, T/C: 64.8%
[4]
  viability, T/C: 72.9%
Second compound 0.01 µM, first compound 0.00316 µM
  viability, T/C: 83.7%
Second compound 0.01 µM, first compound 0.01 µM
  viability, T/C: 97.5%
[5]
  viability, T/C: 90.5%
[6]
  viability, T/C: 71.8%
[7]
  viability, T/C: 61.3%
[8]
  viability, T/C: 56.6%
Second compound 0.0316 µM, first compound 0.00316 µM
  viability, T/C: 86.6%
Second compound 0.0316 µM, first compound 0.01 µM
  viability, T/C: 129%
[9]
  viability, T/C: 86.1%
[10]
  viability, T/C: 96%
[11]
  viability, T/C: 80.5%
[12]
  viability, T/C: 52.8%
Second compound 0.1 µM, first compound 0.00316 µM
  viability, T/C: 65.5%
Second compound 0.1 µM, first compound 0.01 µM
  viability, T/C: 123%
[13]
  viability, T/C: 89.4%
[14]
  viability, T/C: 75.4%
[15]
  viability, T/C: 87.9%
[16]
  viability, T/C: 69.2%
Second compound 0.316 µM, first compound 0.00316 µM
  viability, T/C: 74.9%
Second compound 0.316 µM, first compound 0.01 µM
  viability, T/C: 99.9%
[17]
  viability, T/C: 100%
[18]
  viability, T/C: 117%
[19]
  viability, T/C: 82.6%
[20]
  viability, T/C: 67%
Second compound 1 µM, first compound 0.00316 µM
  viability, T/C: 90.8%
Second compound 1 µM, first compound 0.01 µM
  viability, T/C: 96.9%
[21]
  viability, T/C: 81.7%
[22]
  viability, T/C: 88.4%
[23]
  viability, T/C: 88.6%
[24]
  viability, T/C: 65.6%

## NC1c2ccccc2OC12CCN(c1cnc3c(N4CCCc5ncccc54)n[nH]c3n1)CC2 (stereo unspecified) + CCn1c(-c2cccnc2C(C)OC)c2c3cc(ccc31)N1CCOC(CC(NC(=O)C(C(C)C)N(C)C(=O)C3(F)CCN(C(=O)C#CC(C)(C)N(C)C)CC3)C(=O)N3CCCC(N3)C(=O)OCC(C)(C)C2)C1
Second compound 0.000949 µM
  IC50: > 10000 nM
Second compound 0.003 µM
  IC50: > 10000 nM
Second compound 0.00949 µM
  IC50: > 10000 nM
Second compound 0.03 µM
  IC50: > 10000 nM
Second compound 0.0949 µM
  IC50: > 10000 nM
Second compound 0.3 µM
  IC50: > 10000 nM
Second compound 0.000949 µM, first compound 0.0316 µM
  viability, T/C: 78.4%
Second compound 0.000949 µM, first compound 0.1 µM
  viability, T/C: 93.4%
Second compound 0.000949 µM, first compound 0.316 µM
  viability, T/C: 90.7%
Second compound 0.000949 µM, first compound 1 µM
  viability, T/C: 97%
Second compound 0.000949 µM, first compound 3.16 µM
  viability, T/C: 108%
Second compound 0.000949 µM, first compound 10 µM
  viability, T/C: 75.5%
Second compound 0.003 µM, first compound 0.0316 µM
  viability, T/C: 97.2%
Second compound 0.003 µM, first compound 0.1 µM
  viability, T/C: 95.3%
Second compound 0.003 µM, first compound 0.316 µM
  viability, T/C: 91%
Second compound 0.003 µM, first compound 1 µM
  viability, T/C: 99.4%
Second compound 0.003 µM, first compound 3.16 µM
  viability, T/C: 98.5%
Second compound 0.003 µM, first compound 10 µM
  viability, T/C: 71.7%
Second compound 0.00949 µM, first compound 0.0316 µM
  viability, T/C: 108%
Second compound 0.00949 µM, first compound 0.1 µM
  viability, T/C: 95.4%
Second compound 0.00949 µM, first compound 0.316 µM
  viability, T/C: 90.3%
Second compound 0.00949 µM, first compound 1 µM
  viability, T/C: 116%
Second compound 0.00949 µM, first compound 3.16 µM
  viability, T/C: 93.6%
Second compound 0.00949 µM, first compound 10 µM
  viability, T/C: 59.8%
Second compound 0.03 µM, first compound 0.0316 µM
  viability, T/C: 93.9%
Second compound 0.03 µM, first compound 0.1 µM
  viability, T/C: 102%
Second compound 0.03 µM, first compound 0.316 µM
  viability, T/C: 115%
Second compound 0.03 µM, first compound 1 µM
  viability, T/C: 96.8%
Second compound 0.03 µM, first compound 3.16 µM
  viability, T/C: 98.1%
Second compound 0.03 µM, first compound 10 µM
  viability, T/C: 85%
Second compound 0.0949 µM, first compound 0.0316 µM
  viability, T/C: 105%
Second compound 0.0949 µM, first compound 0.1 µM
  viability, T/C: 103%
Second compound 0.0949 µM, first compound 0.316 µM
  viability, T/C: 116%
Second compound 0.0949 µM, first compound 1 µM
  viability, T/C: 91.3%
Second compound 0.0949 µM, first compound 3.16 µM
  viability, T/C: 89.7%
Second compound 0.0949 µM, first compound 10 µM
  viability, T/C: 59.3%
Second compound 0.3 µM, first compound 0.0316 µM
  viability, T/C: 84.8%
Second compound 0.3 µM, first compound 0.1 µM
  viability, T/C: 68.8%
Second compound 0.3 µM, first compound 0.316 µM
  viability, T/C: 102%
Second compound 0.3 µM, first compound 1 µM
  viability, T/C: 90.8%
Second compound 0.3 µM, first compound 3.16 µM
  viability, T/C: 85.2%
Second compound 0.3 µM, first compound 10 µM
  viability, T/C: 61.4%

## CC(=O)OC12COC1CC(O)C1(C)C(=O)C(O)C3=C(C)C(OC(=O)C(O)C(NC(=O)OC(C)(C)C)c4ccccc4)CC(O)(C(OC(=O)c4ccccc4)C21)C3(C)C (stereo unspecified) + C=CC(=O)N1CCN(c2nc(OCC3CCCN3C)nc3c(F)c(-c4nc(N)cc(C)c4C(F)(F)F)c(Cl)cc23)C(C)C1
Second compound 0.00316 µM
  IC50: < 31.6 nM
Second compound 0.01 µM
  IC50: < 31.6 nM
Second compound 0.0316 µM
  IC50: < 31.6 nM
Second compound 0.1 µM
  IC50: < 31.6 nM
Second compound 0.316 µM
  IC50: < 31.6 nM
Second compound 1 µM
  IC50: < 31.6 nM
[1]
  viability, T/C: 12.6%
[2]
  viability, T/C: 17.8%
[3]
  viability, T/C: 16.3%
[4]
  viability, T/C: 20.1%
Second compound 0.00316 µM, first compound 3.16 µM
  viability, T/C: 23.8%
Second compound 0.00316 µM, first compound 10 µM
  viability, T/C: 23.6%
[5]
  viability, T/C: 12.8%
[6]
  viability, T/C: 16.6%
[7]
  viability, T/C: 14.5%
[8]
  viability, T/C: 20.7%
Second compound 0.01 µM, first compound 3.16 µM
  viability, T/C: 19.3%
Second compound 0.01 µM, first compound 10 µM
  viability, T/C: 19.1%
[9]
  viability, T/C: 16.9%
[10]
  viability, T/C: 15.2%
[11]
  viability, T/C: 15.4%
[12]
  viability, T/C: 22.6%
Second compound 0.0316 µM, first compound 3.16 µM
  viability, T/C: 22.9%
Second compound 0.0316 µM, first compound 10 µM
  viability, T/C: 26.5%
[13]
  viability, T/C: 13%
[14]
  viability, T/C: 15%
[15]
  viability, T/C: 16.5%
[16]
  viability, T/C: 16.1%
Second compound 0.1 µM, first compound 3.16 µM
  viability, T/C: 24.3%
Second compound 0.1 µM, first compound 10 µM
  viability, T/C: 21.4%
[17]
  viability, T/C: 16.8%
[18]
  viability, T/C: 18.1%
[19]
  viability, T/C: 18.2%
[20]
  viability, T/C: 18.2%
Second compound 0.316 µM, first compound 3.16 µM
  viability, T/C: 21.6%
Second compound 0.316 µM, first compound 10 µM
  viability, T/C: 25.6%
[21]
  viability, T/C: 13.8%
[22]
  viability, T/C: 12%
[23]
  viability, T/C: 18.8%
[24]
  viability, T/C: 20.2%
Second compound 1 µM, first compound 3.16 µM
  viability, T/C: 20.2%
Second compound 1 µM, first compound 10 µM
  viability, T/C: 25.8%
